Experimental data published in ChEMBL document CHEMBL1201862, “PubChem BioAssay data set” (2004).
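Method: 48-hour compound exposure of cells in 96-well plates, five concentrations, linear interpolation of endpoints. At the GI50, growth is halved.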 Active and inactive are the calls of the source. Rule as the data show it: active = GI50 up to about 1.1 µM and inactive = higher.

Tests used:
Experiment in all cases: growth of human tumour cells (NCI), 48 h
[1] = system: A549
[2] = system: ACHN
[3] = system: BT-549
[4] = system: MDA-N
[5] = system: MOLT-4
[6] = system: Malme-3M
[7] = system: NCI-H226
[8] = system: NCI-H23
[9] = system: NCI-H460
[10] = system: OVCAR-5
[11] = system: OVCAR-8
[12] = system: PC-3
[13] = system: RPMI-8226
[14] = system: SF-268
[15] = system: SK-MEL-5
[16] = system: SK-OV-3
[17] = system: SN12C
[18] = system: TK-10
[19] = system: U-251
[20] = system: SR

| Structure (SMILES) | GI50 [1] | GI50 [2] | GI50 [3] | GI50 [4] | GI50 [5] | GI50 [6] | GI50 [7] | GI50 [8] | GI50 [9] | GI50 [10] | GI50 [11] | GI50 [12] | GI50 [13] | GI50 [14] | GI50 [15] | GI50 [16] | GI50 [17] | GI50 [18] | GI50 [19] | GI50 [20] |
| --- | --- | --- | --- | --- | --- | --- | --- | --- | --- | --- | --- | --- | --- | --- | --- | --- | --- | --- | --- | --- |
| OC1CCN2Cc3ccccc3N=C12 (stereo not given) | > 100 µM (inactive) | > 100 µM (inactive) | > 100 µM (inactive) | > 100 µM (inactive) | > 100 µM (inactive) | > 100 µM (inactive) | > 100 µM (inactive) | > 100 µM (inactive) | > 100 µM (inactive) | > 100 µM (inactive) | > 100 µM (inactive) | > 100 µM (inactive) | > 100 µM (inactive) | > 100 µM (inactive) | > 100 µM (inactive) | > 100 µM (inactive) | > 100 µM (inactive) | > 100 µM (inactive) | > 100 µM (inactive) | – |
| C[N+](C)(C)CC(=O)N/N=C\c1c(O)ccc2ccccc12 | > 100 µM (inactive) | 32.7 µM (inactive) | – | 42.9 µM (inactive) | 9.08 µM (inactive) | 11.9 µM (inactive) | 21 µM (inactive) | 36 µM (inactive) | 18.1 µM (inactive) | 57.1 µM (inactive) | 26.3 µM (inactive) | 37.6 µM (inactive) | 32.1 µM (inactive) | 10.7 µM (inactive) | 16.2 µM (inactive) | 34.8 µM (inactive) | 32.2 µM (inactive) | 28.2 µM (inactive) | 21.4 µM (inactive) | 33.2 µM (inactive) |
| CC1=CC(=O)/C(=C/NC(=S)NCCc2ccccc2)C(=O)O1 | > 100 µM (inactive) | > 100 µM (inactive) | 53.7 µM (inactive) | > 100 µM (inactive) | > 100 µM (inactive) | – | > 100 µM (inactive) | > 100 µM (inactive) | > 100 µM (inactive) | > 100 µM (inactive) | > 100 µM (inactive) | > 100 µM (inactive) | – | – | > 100 µM (inactive) | > 100 µM (inactive) | > 100 µM (inactive) | 6.44 µM (inactive) | > 100 µM (inactive) | – |
| Cc1ccc(Nc2nc(C)c(C(=O)CC(=O)C(=O)Nc3ccc(Cl)cc3)s2)cc1 | > 100 µM (inactive) | > 100 µM (inactive) | – | > 100 µM (inactive) | > 100 µM (inactive) | 76.6 µM (inactive) | – | > 100 µM (inactive) | > 100 µM (inactive) | > 100 µM (inactive) | – | > 100 µM (inactive) | > 100 µM (inactive) | 49.5 µM (inactive) | > 100 µM (inactive) | > 100 µM (inactive) | > 100 µM (inactive) | > 100 µM (inactive) | > 100 µM (inactive) | > 100 µM (inactive) |
| CCN(CC)CC1CN=C(N)O1 (stereo not given) | > 100 µM (inactive) | > 100 µM (inactive) | > 100 µM (inactive) | > 100 µM (inactive) | > 100 µM (inactive) | – | > 100 µM (inactive) | > 100 µM (inactive) | > 100 µM (inactive) | > 100 µM (inactive) | > 100 µM (inactive) | > 100 µM (inactive) | > 100 µM (inactive) | – | > 100 µM (inactive) | – | > 100 µM (inactive) | – | > 100 µM (inactive) | > 100 µM (inactive) |
| CC(C)NCC(O)c1ccc(O)c2ncccc12 (stereo not given) | 6.82 µM (inactive) | 42.3 µM (inactive) | > 100 µM (inactive) | 91.2 µM (inactive) | 18.2 µM (inactive) | – | > 100 µM (inactive) | 11 µM (inactive) | 5.58 µM (inactive) | > 100 µM (inactive) | 33.3 µM (inactive) | 46.5 µM (inactive) | 49.1 µM (inactive) | 35.3 µM (inactive) | 66.4 µM (inactive) | 21.9 µM (inactive) | 30.3 µM (inactive) | 47.3 µM (inactive) | 31.5 µM (inactive) | 25.4 µM (inactive) |
| CC(C)(C)c1cc(C(C)(C)C)c(SS(=O)(=O)O)c(O)c1O | 9.33 µM (inactive) | 31.6 µM (inactive) | > 100 µM (inactive) | 30.1 µM (inactive) | < 0.01 µM (active) | 97.5 µM (inactive) | 40 µM (inactive) | > 100 µM (inactive) | 10.9 µM (inactive) | > 100 µM (inactive) | 44.9 µM (inactive) | 50.1 µM (inactive) | 21.6 µM (inactive) | 13.4 µM (inactive) | 34 µM (inactive) | > 100 µM (inactive) | 67 µM (inactive) | > 100 µM (inactive) | 27.2 µM (inactive) | – |
| CCN(CC)c1ccc(C2Nc3ccc4ccccc4c3C3=C2C(=O)CCC3)cc1 (stereo not given) | 26.7 µM (inactive) | 12.2 µM (inactive) | 60.8 µM (inactive) | > 100 µM (inactive) | > 100 µM (inactive) | > 100 µM (inactive) | 35.8 µM (inactive) | 75 µM (inactive) | > 100 µM (inactive) | > 100 µM (inactive) | 14.7 µM (inactive) | 39.3 µM (inactive) | > 100 µM (inactive) | 27.5 µM (inactive) | – | 38.4 µM (inactive) | 42 µM (inactive) | – | 14.9 µM (inactive) | – |
| CSc1nc(-c2ccccc2)nc(C(C#N)C#N)n1 | > 100 µM (inactive) | > 100 µM (inactive) | – | > 100 µM (inactive) | > 100 µM (inactive) | > 100 µM (inactive) | > 100 µM (inactive) | > 100 µM (inactive) | – | > 100 µM (inactive) | > 100 µM (inactive) | > 100 µM (inactive) | > 100 µM (inactive) | > 100 µM (inactive) | > 100 µM (inactive) | > 100 µM (inactive) | > 100 µM (inactive) | > 100 µM (inactive) | > 100 µM (inactive) | – |
| Cl.O=C(O)c1cccnc1 | > 100 µM (inactive) | > 100 µM (inactive) | – | > 100 µM (inactive) | > 100 µM (inactive) | > 100 µM (inactive) | > 100 µM (inactive) | > 100 µM (inactive) | > 100 µM (inactive) | 64.4 µM (inactive) | > 100 µM (inactive) | > 100 µM (inactive) | > 100 µM (inactive) | > 100 µM (inactive) | > 100 µM (inactive) | – | > 100 µM (inactive) | > 100 µM (inactive) | > 100 µM (inactive) | > 100 µM (inactive) |
| CC1(C)CC(=O)c2c(nc3ccc4ccccc4c3c2-c2ccc(NC(=O)CCCCC(=O)Nc3ccc(-c4c5c(nc6ccc7ccccc7c46)CC(C)(C)CC5=O)cc3)cc2)C1 | > 100 µM (inactive) | > 100 µM (inactive) | > 100 µM (inactive) | > 100 µM (inactive) | > 100 µM (inactive) | – | > 100 µM (inactive) | > 100 µM (inactive) | > 100 µM (inactive) | > 100 µM (inactive) | > 100 µM (inactive) | > 100 µM (inactive) | > 100 µM (inactive) | > 100 µM (inactive) | > 100 µM (inactive) | > 100 µM (inactive) | > 100 µM (inactive) | > 100 µM (inactive) | > 100 µM (inactive) | > 100 µM (inactive) |
| NNC(=O)c1ccccc1Nc1ccccc1C(=O)NN | > 100 µM (inactive) | > 100 µM (inactive) | > 100 µM (inactive) | > 100 µM (inactive) | > 100 µM (inactive) | > 100 µM (inactive) | > 100 µM (inactive) | > 100 µM (inactive) | > 100 µM (inactive) | > 100 µM (inactive) | > 100 µM (inactive) | > 100 µM (inactive) | > 100 µM (inactive) | > 100 µM (inactive) | > 100 µM (inactive) | > 100 µM (inactive) | > 100 µM (inactive) | > 100 µM (inactive) | > 100 µM (inactive) | – |
| NS(=O)(=O)c1cccc(NC(=S)NC(=O)Nc2ccc(Cl)c(Cl)c2)c1 | 20.5 µM (inactive) | 19.5 µM (inactive) | 16.1 µM (inactive) | 18.6 µM (inactive) | 12 µM (inactive) | 11.5 µM (inactive) | – | 15.8 µM (inactive) | 16.7 µM (inactive) | 25 µM (inactive) | 17.3 µM (inactive) | 22.4 µM (inactive) | 16.9 µM (inactive) | 22.5 µM (inactive) | 17.1 µM (inactive) | 21.4 µM (inactive) | 17.7 µM (inactive) | 32.5 µM (inactive) | 22.3 µM (inactive) | – |
| Cc1cc(C)c2c(c1)C1=NCCN1C2(O)c1ccc(Cl)cc1 (stereo not given) | 18.2 µM (inactive) | 16.1 µM (inactive) | 13.2 µM (inactive) | 15.1 µM (inactive) | 37.6 µM (inactive) | – | – | 17.8 µM (inactive) | 14.9 µM (inactive) | 16.5 µM (inactive) | 15.8 µM (inactive) | 16 µM (inactive) | 13.6 µM (inactive) | 15.8 µM (inactive) | 14.6 µM (inactive) | 15 µM (inactive) | 16.5 µM (inactive) | 2.79 µM (inactive) | 17.7 µM (inactive) | 20.1 µM (inactive) |
| CC(=O)c1c(O)c(C)c(O)c(Cc2c(O)c3c(c(C(=O)/C=C/c4ccccc4)c2O)OC(C)(C)C=C3)c1O [ROTTLERIN] | 0.986 µM (active) | 3.51 µM (inactive) | 2.51 µM (inactive) | 3.14 µM (inactive) | 1.89 µM (inactive) | 2.84 µM (inactive) | 3.45 µM (inactive) | 2.37 µM (inactive) | 2.94 µM (inactive) | 3.56 µM (inactive) | 3.08 µM (inactive) | 1.11 µM (active) | 1.79 µM (inactive) | 3.61 µM (inactive) | 1.87 µM (inactive) | 4.04 µM (inactive) | 2.21 µM (inactive) | 2.98 µM (inactive) | 2.31 µM (inactive) | – |
